Data as given in US20230091225A1, “Bifunctional chimeric heterocyclic compounds for targeted degradation of androgen receptors and use thereof” (HINOVA PHARMACEUTICALS INC., priority 2019, published 2023).
Where two headings read alike, the source gives them in different places. Values belong to the compound of their own block, whether it stands above or below them.

Biological target: T1, androgen receptor (AR) (Homo sapiens, UniProt P10275)
T1 sequence (P10275 1-920): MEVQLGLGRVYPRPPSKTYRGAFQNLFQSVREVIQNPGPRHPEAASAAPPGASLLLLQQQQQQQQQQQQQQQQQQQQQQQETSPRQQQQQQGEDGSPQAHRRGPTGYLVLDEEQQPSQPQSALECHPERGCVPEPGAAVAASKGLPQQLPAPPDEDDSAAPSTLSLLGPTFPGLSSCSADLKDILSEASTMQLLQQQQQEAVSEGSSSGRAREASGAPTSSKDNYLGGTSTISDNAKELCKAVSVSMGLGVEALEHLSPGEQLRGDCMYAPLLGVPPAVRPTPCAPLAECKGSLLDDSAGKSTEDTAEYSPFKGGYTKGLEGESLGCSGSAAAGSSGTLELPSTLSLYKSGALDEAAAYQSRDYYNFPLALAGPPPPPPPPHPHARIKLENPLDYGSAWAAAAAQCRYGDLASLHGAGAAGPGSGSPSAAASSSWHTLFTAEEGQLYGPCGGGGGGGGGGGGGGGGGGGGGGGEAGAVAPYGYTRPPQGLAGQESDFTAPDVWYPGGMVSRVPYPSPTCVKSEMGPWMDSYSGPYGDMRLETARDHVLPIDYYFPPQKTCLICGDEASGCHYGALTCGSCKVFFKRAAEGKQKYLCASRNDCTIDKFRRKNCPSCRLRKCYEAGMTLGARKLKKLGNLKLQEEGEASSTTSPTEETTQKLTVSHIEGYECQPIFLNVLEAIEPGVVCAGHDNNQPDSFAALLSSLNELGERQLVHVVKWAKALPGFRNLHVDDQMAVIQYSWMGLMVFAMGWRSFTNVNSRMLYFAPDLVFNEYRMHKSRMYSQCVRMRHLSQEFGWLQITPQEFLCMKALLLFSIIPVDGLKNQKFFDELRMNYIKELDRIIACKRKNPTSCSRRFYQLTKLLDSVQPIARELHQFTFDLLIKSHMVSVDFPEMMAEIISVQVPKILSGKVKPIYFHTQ
Assay: Degradation of androgen receptor (AR) protein in VCaP cells by ELISA
Assay type: cell-based
Details: for Dmax: VCaP

[1] = AR degradation, VCaP cells, 16 h, ELISA, Table 3-1, read-out: DC50
[2] = AR degradation, VCaP cells, 16 h, ELISA, Table 3-1, read-out: Dmax (%)
[3] = AR degradation, VCaP cells, 16 h, ELISA, Table 3-2, read-out: DC50
[4] = AR degradation, VCaP cells, 16 h, ELISA, Table 3-2, read-out: Dmax (%)

Compound: N#Cc1ccc(O[C@H]2CC[C@H](NC(=O)c3ccc(N4CCC(CN5CC6(C5)CN(c5cc7c(cc5F)C(=O)N(C5CCC(=O)NC5=O)C7=O)C6)CC4)nn3)CC2)cc1Cl (stereo partly shown) [Compound 122, N-((1r,4r)-4-(3-chloro-4-cyanophenoxy)cyclohexyl)-6-(4-((6-(2-(2,6-dioxopiperidin-3-yl)-6-fluoro-1,3-dioxoisoindolin-5-yl)-2,6-diazaspiro[3.3]heptan-2-yl)methyl)piperidin-1-yl)pyridazine-3-amide]
DC50: < 10 nM
Dmax: > 80%

DC50 [1]: < 10 nM
Dmax [2]: > 80%
Compound: N#Cc1ccc(O[C@H]2CC[C@H](NC(=O)c3ccc(N4CCC(N5CCC6(CC5)CN(c5ccc7c(c5)C(=O)N(C5CCC(=O)NC5=O)C7=O)C6)CC4)nn3)CC2)cc1Cl (stereo partly shown) [Compound 281, N-((1r,4r)-4-(3-chloro-4-cyanophenoxy)cyclohexyl)-6-(4-(2-(2-(2,6-dioxopiperidin-3-yl)-1,3-dioxoisoindolin-5-yl)-2,7-diazaspiro[3.5]nonan-7-yl)piperidin-1-yl)pyridazine-3-formamide]

DC50 [3]: < 10 nM
Dmax [4]: > 80%
Compound: N#Cc1ccc(O[C@H]2CC[C@H](NC(=O)c3ccn([C@H]4CC[C@H](CN5CCC6(CC5)CN(c5ccc7c(c5)C(=O)N(C5CCC(=O)NC5=O)C7=O)C6)CC4)n3)CC2)cc1Cl (stereo partly drawn) [Compound 416, N-((1r,4R)-4-(3-chloro-4-cyanophenoxy)cyclohexyl)-1-((1r,4R)-4-((2-(2-(2,6-dioxopiperidin-3-yl)-1,3-dioxoisoindolin-5-yl)-2,7-diazaspiro[3.5]nonan-7-yl)methyl)cyclohexyl)-1H-pyrazole-3-formamide]

Compound: N#Cc1ccc(O[C@H]2CC[C@H](NC(=O)c3ccc(N4CCC(CN5CCC6(CC5)CN(c5ccc7c(c5)C(=O)N(C5CCC(=O)NC5=O)C7=O)C6)CC4)nn3)CC2)cc1Br (stereo partly shown) [Compound 274, N-((1r,4r)-4-(3-bromo-4-cyanophenoxy)cyclohexyl)-6-(4-((2-(2-(2-,2,6-dioxopiperidin-3-yl)-1,3-dioxoisoindolin-5-yl)-2,7-diazaspiro[3.5]nonan-7-yl)methyl)piperidin-1-yl)pyridazine-3-carboxamide]
DC50: < 10 nM
Dmax: > 80%

DC50 [1]: < 10 nM
Dmax [2]: 60 to 80%
Compound: C[C@@H]1CN(C[C@@H]2[C@H]3CN(c4cc5c(cc4F)C(=O)N(C4CCC(=O)NC4=O)C5=O)C[C@@H]23)CCN1c1ccc(C(=O)N[C@H]2CC[C@H](Oc3ccc(C#N)c(Cl)c3)CC2)nn1 (stereo partly shown) [Compound 263]

DC50 [1]: 10 to 100 nM
Dmax [2]: > 80%
Compound: CC1(C)[C@H](Oc2ccc(C#N)c(Cl)c2)C(C)(C)[C@H]1N1Cc2nc(N3CCC(CN4CCN(c5cc6c(cc5F)C(=O)N(C5CCC(=O)NC5=O)C6=O)CC4)CC3)ncc2C1=O (stereo partly shown) [Compound 382]

Compound: Cc1cc(O[C@H]2C(C)(C)[C@H](N3Cc4nc(C#C[C@H]5CC[C@H](N6CCN(c7ccc8c(c7)C(=O)N(C7CCC(=O)NC7=O)C8=O)CC6)CC5)ccc4C3=O)C2(C)C)ccc1C#N (stereo partly shown) [Compound 402]
DC50: < 10 nM
Dmax: > 80%

DC50 [1]: > 300 nM
Dmax [2]: < 40%
Compound: CC1(C)[C@H](Oc2ccc(C#N)c(Cl)c2)C(C)(C)[C@H]1N1Cc2nc(C#CC3CCC(N4CCC5(CN(c6ccc7c(c6)C(=O)N(C6CCC(=O)NC6=O)C7=O)C5)C4)CC3)ccc2C1=O (stereo partly shown) [Compound 372]

DC50 [1]: < 10 nM
Dmax [2]: > 80%
Compound: N#Cc1ccc(O[C@H]2CC[C@H](NC(=O)c3nnc(N4CC5(CCN(C6CCN(c7ccc8c(c7)C(=O)N(C7CCC(=O)NC7=O)C8=O)CC6)CC5)C4)s3)CC2)cc1Cl (stereo partly shown) [Compound 193, N-((1r,4r)-4-(3-chloro-4-cyanophenoxy)cyclohexyl)-5-(7-(1-(2-(2,6-dioxopiperidin-3-yl)-1,3-dioxoisoindolin-5-yl)piperidine-4-yl)-2,7-diazaspiro[3.5]nonan-2-yl)-1,3,4-thiadiazole-2-carboxamide]

DC50 [1]: 10 to 100 nM
Dmax [2]: 60 to 80%
Compound: N#Cc1ccc(O[C@H]2CC[C@H](NC(=O)c3ccc(N4CCN(C[C@@H]5[C@H]6CN(c7cc8c(cc7F)C(=O)N(C7CCC(=O)NC7=O)C8=O)C[C@@H]56)CC4)cn3)CC2)cc1Cl (stereo partly shown) [Compound 286]

DC50 [3]: < 10 nM
Dmax [4]: > 80%
Compound: [2H]C([2H])([2H])Oc1cc(O[C@H]2C(C)(C)[C@H](N3Cc4nc(C#C[C@H]5CC[C@H](N6CCN(c7ccc8c(c7)C(=O)N(C7CCC(=O)NC7=O)C8=O)CC6)CC5)ccc4C3=O)C2(C)C)ccc1C#N (stereo partly shown) [Compound 429]

DC50 [3]: < 10 nM
Dmax [4]: > 80%
Compound: N#Cc1ccc(O[C@H]2CC[C@H](NC(=O)c3cnc(N4CCC(CN5CCC6(CC5)CN(c5ccc7c(c5)C(=O)N(C5CCC(=O)NC5=O)C7=O)C6)CC4)nn3)CC2)cc1C(F)(F)F (stereo partly shown) [Compound 420, N-((1r,4r)-4-(4-cyano-3-trifluoromethyl-phenoxy)cyclohexyl)-3-(4-((2-(2-(2,6-dioxopiperidin-3-yl)-1,3-dioxoisoindolin-5-yl)-2,7-diazaspiro[3.5]nonane-7-yl)methyl)piperidin-1-yl)-1,2,4-triazine-6-formamide]

Compound: N#Cc1ccc(OC2CCC(NC(=O)c3ccc(N4CCC5(CC4)CN(CC4CCN(c6cc7c(cc6F)C(=O)N(C6CCC(=O)NC6=O)C7=O)CC4)C5)nn3)CC2)cc1C(F)(F)F (stereo not shown) [Compound 285, N-((1r,4r) 4-(4-cyano-3-(trifluoromethyl)phenoxy)cyclohexyl)-6-(2-((1-(2,6-dioxopiperidin-3-yl)-6-fluoro-1,3-dioxoisoindolin-5-yl)piperidine-4-yl)methyl)-2,7-diazaspiro [3.5] nonan-7-yl)pyridazine-3-formamide]
Dmax (%): ++++ (key: A: >80%; B: 79%-50%; C: 49%-25%; D: <25%)
DC50 (read-out: DC50): < 10 nM

Compound: CC1(C)C(Oc2ccc(C#N)c(Cl)c2)C(C)(C)C1N1Cc2nc(N3CCC(CN4CCN(c5cc6c(cc5F)C(=O)N([C@@H]5CCC(=O)NC5=O)C6)CC4)CC3)ccc2C1=O (stereo partly shown) [Compound 212]
% degradation: C (key: A: >80%; B: 79%-50%; C: 49%-25%; D: <25%)

DC50 [1]: 10 to 100 nM
Dmax [2]: > 80%
Compound: CC1(C)[C@H](Oc2ccc(C#N)c(Cl)c2)C(C)(C)[C@H]1N1Cc2nc(N3CCC(CN4CCN(c5ccc6c(c5)C(=O)N(C5CCC(=O)NC5=O)C6=O)CC4)CC3)ncc2C1=O (stereo partly shown) [Compound 383]

Compound: CC1(C)[C@H](Oc2ccc(C#N)c(Cl)c2)C(C)(C)[C@H]1N1Cc2nc(C#CC3CCC(N4CC5CC4CN5c4ccc5c(c4)C(=O)N(C4CCC(=O)NC4=O)C5=O)CC3)ccc2C1=O (single isomer, unassigned) [Compound 353, 2-Chloro-4-((1r,3r)-3-(2-((4-(5-(2-(2,6-dioxopiperidin-3-yl)-1,3-dioxoisoindolin-5-yl)-2,5-diazabicyclo[2.2.1]heptan-2-yl)cyclohexyl)ethynyl)-5-oxo-5,7-dihydro-6H-pyrrolo[3,4-b]pyridin-6-yl)-2,2,4,4-tetramethylcyclobutoxy) benzonitrile]
DC50 [1]: > 300 nM

Compound: N#Cc1ccc(O[C@H]2CC[C@H](NC(=O)c3ccc(N4CCC(CN5CCC6(CC5)CN(c5cc7c(cc5F)C(=O)N(C5CCC(=O)NC5=O)C7=O)C6)CC4)nn3)CC2)cc1 (stereo partly shown) [Compound 132, N-((1r,4r)-4-(4-cyanophenoxy)cyclohexyl)-6-(4-((2-(2-(2,6-dioxapiperidin-3-yl)-6-fluoro-1,3-dioxoisoindolin-5-yl)-2,7-diazaspiro[3.5]nonan-7-yl)methyl)piperidin-1-yl)pyridazine-3-carboxamide]
DC50 [1]: 10 to 100 nM
Dmax: 60 to 80%

DC50 [1]: < 10 nM
Dmax [2]: > 80%
Compound: N#Cc1ccc(O[C@H]2CC[C@H](NC(=O)c3ccc(N4CC5(CCN(CC6CCN(c7ccc8c(c7)C(=O)N(C7CCC(=O)NC7=O)C8=O)CC6)CC5)C4)nn3)CC2)cc1Cl (stereo partly shown) [Compound 282, N-((1r,4r)-4-(3-chloro-4-cyanophenoxy)cyclohexyl)-6-(7-((1-(2-(2,6-dioxopiperidin-3-yl)-1,3-dioxoisoindolin-5-yl)piperidine-4-yl)methyl)-2,7-diazaspiro[3.5]nonan-2-yl)pyridazine-3-formamide]

Compound: [2H]C([2H])([2H])Oc1cc(O[C@H]2CC[C@H](NC(=O)c3ccc(N4CCC(CN5CCC6(CC5)CN(c5ccc7c(c5)C(=O)N(C5CCC(=O)NC5=O)C7=O)C6)CC4)nn3)CC2)ccc1C#N (stereo partly shown) [Compound 153]
DC50: < 10 nM
Dmax: > 80%

DC50 [3]: < 10 nM
Dmax [4]: > 80%
Compound: COc1cc(O[C@H]2C(C)(C)[C@H](N3Cc4nc(C#C[C@H]5CC[C@H](N6CCN(c7cc8c(cc7F)C(=O)N(C7CCC(=O)NC7=O)C8=O)CC6)CC5)ccc4C3=O)C2(C)C)ccc1C#N (stereo partly shown) [Compound 399]

Compound: N#Cc1ccc(O[C@H]2CC[C@H](NC(=O)c3ncc(N4CCC(CN5CCC6(CC5)CN(c5ccc7c(c5)C(=O)N(C5CCC(=O)NC5=O)C7=O)C6)CC4)cn3)CC2)cc1Cl (stereo partly shown) [Compound 149]
DC50: > 300 nM
Dmax: < 40%
